Laboratory results: patent publication US20230130132A1, “PHARMACEUTICAL COMPOSITIONS COMPRISING AMPHIPHILIC PEPTIDES AND METHODS OF USE THEREOF” (BONE SCI. BIO LTD., priority 2020, published 2023)
No end group written: not given here.

Experiments:
pH of the composition = type: physicochemical; conditions: 5% w/v in deionized water, clear solution
[1] = PFD5 sodium dissolved in HCl: peptide to acid mole ratio for stable hydrogel, pKa; type: physicochemical; conditions: aqueous HCl solution (hydrogel); 1% (w/v) PFD5; pH at which half of the Asp residues are assumed protonated
Description: Different mole ratios of PFD5 sodium to HCl were generated by dissolving the peptide in an HCl solution using a magnetic stirrer. Following mixing for a few minutes, hydrogel formation was tested (Table 2 and FIG. 1A-1B). […] At a 1:6 ratio, the stable hydrogel appeared opaquer.
At a 1:4 ratio, the stable hydrogel appeared opaquer.
At this peptide concentration, the mole ratio of the peptide to acid was determined to be 1:1.67 to afford a stable clear hydrogel (FIG. 1B).

pH of solution (pH of the composition) | pKa [1] | Substance
1.93 |  | Doxycycline hyclate
 | ~5.95 | PDFDFDFDFDFDP [PFD5, Pro-(Asp-Phe)5-Asp-Pro]
